Test results published in the NIST ThermoML archive (doi:10.1021/je700406p).

Test: wn = mass fraction of the nth substance listed
Details: Liquid, Vibrating tube method

CC(C)(N)CO [2-amino-2-methylpropan-1-ol] + O
Details | mass density [kg/m3]
313.13 K, 500 kPa, w1 = 0.1997 | 989.5
313.13 K, 995 kPa, w1 = 0.2821 | 988.9
313.13 K, 998 kPa, w1 = 0.4002 | 985.4
313.13 K, 999 kPa, w1 = 0.4976 | 978.1
313.13 K, 1000 kPa, w1 = 0.1997 | 989.8
313.13 K, 2000 kPa, w1 = 0.1997 | 990.1
313.13 K, 2002 kPa, w1 = 0.2821 | 989.2
313.13 K, 2006 kPa, w1 = 0.4002 | 985.8
313.13 K, 2014 kPa, w1 = 0.4976 | 978.5
313.13 K, 2993 kPa, w1 = 0.2821 | 989.6
313.13 K, 2995 kPa, w1 = 0.4002 | 986.2
313.13 K, 3000 kPa, w1 = 0.1997 | 990.5
313.13 K, 3001 kPa, w1 = 0.4976 | 978.9
313.13 K, 3995 kPa, w1 = 0.4002 | 986.6
313.13 K, 4000 kPa, w1 = 0.1997 | 990.9
313.13 K, 4001 kPa, w1 = 0.2821 | 990
313.13 K, 4001 kPa, w1 = 0.4976 | 979.3
313.13 K, 4995 kPa, w1 = 0.2821 | 990.4
313.13 K, 4999 kPa, w1 = 0.4002 | 986.9
313.13 K, 4999 kPa, w1 = 0.4976 | 979.7
313.13 K, 5000 kPa, w1 = 0.1997 | 991.2
313.13 K, 5999 kPa, w1 = 0.4002 | 987.3
313.13 K, 6000 kPa, w1 = 0.1997 | 991.6
313.13 K, 6000 kPa, w1 = 0.4976 | 980.2
313.13 K, 6005 kPa, w1 = 0.2821 | 990.8
313.13 K, 6987 kPa, w1 = 0.2821 | 991.1
313.13 K, 6994 kPa, w1 = 0.4002 | 987.7
313.13 K, 6995 kPa, w1 = 0.4976 | 980.6
313.13 K, 7000 kPa, w1 = 0.1997 | 992
313.13 K, 7986 kPa, w1 = 0.4002 | 988.1
313.13 K, 7991 kPa, w1 = 0.2821 | 991.5
313.13 K, 8000 kPa, w1 = 0.1997 | 992.4
313.13 K, 8003 kPa, w1 = 0.4976 | 980.9
313.13 K, 8992 kPa, w1 = 0.4002 | 988.5
313.13 K, 8997 kPa, w1 = 0.2821 | 991.9
313.13 K, 8997 kPa, w1 = 0.4976 | 981.4
313.13 K, 9007 kPa, w1 = 0.1997 | 992.8
313.13 K, 9992 kPa, w1 = 0.4002 | 988.9
313.13 K, 9995 kPa, w1 = 0.2821 | 992.3
313.13 K, 9999 kPa, w1 = 0.4976 | 981.8
313.13 K, 10002 kPa, w1 = 0.1997 | 993.2
313.13 K, 10989 kPa, w1 = 0.4976 | 982.1
313.13 K, 10990 kPa, w1 = 0.2821 | 992.6
313.13 K, 10993 kPa, w1 = 0.4002 | 989.2
313.13 K, 11000 kPa, w1 = 0.1997 | 993.6
313.13 K, 11991 kPa, w1 = 0.2821 | 993
313.13 K, 11992 kPa, w1 = 0.4002 | 989.6
313.13 K, 11996 kPa, w1 = 0.4976 | 982.6
313.13 K, 12000 kPa, w1 = 0.1997 | 994
313.13 K, 12982 kPa, w1 = 0.2821 | 993.4
313.13 K, 13000 kPa, w1 = 0.1997 | 994.4
313.13 K, 13002 kPa, w1 = 0.4002 | 990
313.13 K, 13006 kPa, w1 = 0.4976 | 983
313.13 K, 13991 kPa, w1 = 0.2821 | 993.8
313.13 K, 13999 kPa, w1 = 0.4002 | 990.4
313.13 K, 14000 kPa, w1 = 0.1997 | 994.7
313.13 K, 14001 kPa, w1 = 0.4976 | 983.4
313.13 K, 14997 kPa, w1 = 0.2821 | 994.2
313.13 K, 14999 kPa, w1 = 0.4002 | 990.8
313.13 K, 15001 kPa, w1 = 0.4976 | 983.8
313.13 K, 15002 kPa, w1 = 0.1997 | 995.1
313.13 K, 15990 kPa, w1 = 0.2821 | 994.5
313.13 K, 15992 kPa, w1 = 0.4002 | 991.2
313.13 K, 15992 kPa, w1 = 0.4976 | 984.2
313.13 K, 16000 kPa, w1 = 0.1997 | 995.5
313.13 K, 16989 kPa, w1 = 0.2821 | 994.9
313.13 K, 16992 kPa, w1 = 0.4976 | 984.6
313.13 K, 16994 kPa, w1 = 0.4002 | 991.5
313.13 K, 17001 kPa, w1 = 0.1997 | 995.9
313.13 K, 17985 kPa, w1 = 0.4976 | 985
313.13 K, 17988 kPa, w1 = 0.2821 | 995.3
313.13 K, 17989 kPa, w1 = 0.4002 | 991.9
313.13 K, 18002 kPa, w1 = 0.1997 | 996.3
313.13 K, 18987 kPa, w1 = 0.2821 | 995.6
313.13 K, 18990 kPa, w1 = 0.4002 | 992.3
313.13 K, 18990 kPa, w1 = 0.4976 | 985.4
313.13 K, 19000 kPa, w1 = 0.1997 | 996.7
313.13 K, 19992 kPa, w1 = 0.4002 | 992.7
313.13 K, 19992 kPa, w1 = 0.4976 | 985.8
313.13 K, 19996 kPa, w1 = 0.2821 | 996
313.13 K, 20030 kPa, w1 = 0.1997 | 997.1
313.13 K, 20495 kPa, w1 = 0.4976 | 986
313.13 K, 20691 kPa, w1 = 0.4002 | 993
313.13 K, 20955 kPa, w1 = 0.2821 | 996.4
313.13 K, 21004 kPa, w1 = 0.1997 | 997.4
313.13 K, 22004 kPa, w1 = 0.1997 | 997.8
313.13 K, 23000 kPa, w1 = 0.1997 | 998.2
313.13 K, 24004 kPa, w1 = 0.1997 | 998.5
323.08 K, 1026 kPa, w1 = 0.2821 | 982.8
323.08 K, 2026 kPa, w1 = 0.2821 | 983.2
323.08 K, 2996 kPa, w1 = 0.2821 | 983.5
323.08 K, 4009 kPa, w1 = 0.2821 | 983.9
323.08 K, 5006 kPa, w1 = 0.2821 | 984.3
323.08 K, 6002 kPa, w1 = 0.2821 | 984.7
323.08 K, 6993 kPa, w1 = 0.2821 | 985.1
323.08 K, 7994 kPa, w1 = 0.2821 | 985.5
323.08 K, 9012 kPa, w1 = 0.2821 | 985.9
323.08 K, 9998 kPa, w1 = 0.2821 | 986.3
323.08 K, 11009 kPa, w1 = 0.2821 | 986.6
323.08 K, 11995 kPa, w1 = 0.2821 | 987
323.08 K, 12991 kPa, w1 = 0.2821 | 987.4
323.08 K, 14001 kPa, w1 = 0.2821 | 987.8
323.08 K, 14989 kPa, w1 = 0.2821 | 988.2
323.08 K, 15999 kPa, w1 = 0.2821 | 988.5
323.08 K, 16987 kPa, w1 = 0.2821 | 988.9
323.08 K, 17980 kPa, w1 = 0.2821 | 989.3
323.08 K, 18996 kPa, w1 = 0.2821 | 989.7
323.08 K, 19986 kPa, w1 = 0.2821 | 990.1
323.08 K, 20987 kPa, w1 = 0.2821 | 990.4
323.09 K, 1002 kPa, w1 = 0.4976 | 970.1
323.09 K, 1995 kPa, w1 = 0.4976 | 970.5
323.09 K, 3001 kPa, w1 = 0.4976 | 971
323.09 K, 4009 kPa, w1 = 0.4976 | 971.4
323.09 K, 5001 kPa, w1 = 0.4976 | 971.8
323.09 K, 5995 kPa, w1 = 0.4976 | 972.2
323.09 K, 7011 kPa, w1 = 0.4976 | 972.6
323.09 K, 7990 kPa, w1 = 0.4976 | 973
323.09 K, 9002 kPa, w1 = 0.4976 | 973.5
323.09 K, 9974 kPa, w1 = 0.4976 | 973.9
323.09 K, 10992 kPa, w1 = 0.4976 | 974.3
323.09 K, 11993 kPa, w1 = 0.4976 | 974.7
323.09 K, 12991 kPa, w1 = 0.4976 | 975.1
323.09 K, 13986 kPa, w1 = 0.4976 | 975.6
323.09 K, 14991 kPa, w1 = 0.4976 | 976
323.09 K, 15999 kPa, w1 = 0.4976 | 976.4
323.09 K, 16994 kPa, w1 = 0.4976 | 976.8
323.09 K, 18003 kPa, w1 = 0.4976 | 977.2
323.09 K, 18986 kPa, w1 = 0.4976 | 977.6
